From patent US20050282786A1, “Method for reducing c-rective protein levels with non-antibacterial tetracycline formulations” (priority 2002, published 2005)
Values joined by “and” are separate entries in the source; they are usually repeats but may differ in a detail not shown here. Identical values can stand only once. Counter-ions that a name gives are not always drawn. Each block holds one compound with its values, some of them ahead of it.

Columns and labels:
[1] = CMT-3 serum levels in humans; assay type: in vivo, human; settings: dose of about 10 to about 20 mg/day
Protocol: Non-antibacterial tetracycline compounds can be used in higher amounts than antibacterial tetracyclines, while avoiding the indiscriminate killing of bacteria, and the emergence of resistant bacteria. For example, 6-demethyl-6-deoxy-4-dedimethylaminotetracycline (CMT-3) may be administered in doses of about 10 to about 200 mg/day, or in amounts that result in serum levels in humans of about 1.0 μg/ml to about 10 μg/ml. For example, a dose of about 10 to about 20 mg/day produces serum levels in humans of about 1.0 μg/ml.

C-reactive protein (CRP) = assay: Prospective randomized six-month study of low-dose doxycycline versus placebo: C-reactive protein levels in patients after acute coronary syndrome; assay type: in vivo, human; settings: for 6-Month CRP level: after six months of therapy, P<0.05 vs baseline; for 6-Month CRP level / Baseline CRP level: mean ± S.E.M.; for Reduction Due To Treatment (CRP): six months vs baseline; for Baseline CRP level / Baseline CRP: study entry; for Six Month CRP: six months
Protocol: A prospective, randomized study was conducted over six (6) months to investigate the effectiveness of low-dose doxycycline (LDD) versus placebo, in the prevention of subsequent plaque rupture events in patients enrolled after an initial acute coronary syndrome.
Biochemical markers of inflammation were assessed at study entry and after six (6) months of therapy in a subset of patients. A total of thirty (30) patients completed the study of whom thirteen (13) were randomized to placebo and seventeen (17) to LDD. There were no significant differences in age, male gender, hypertension, diabetes, smoking, previous cardiac history, extent of coronary disease, presentation with acute myocardial infarction or unstable angina, or percutaneous coronary intervention between LDD and placebo treated patients.
At six months clinical follow-up, there was no difference in the composite endpoint of cardiovascular death, myocardial infarction or troponin-positive unstable angina in LDD compared to placebo treated patients. […] In placebo-treated patients, CRP was 5.2 μg/ml at study entry and 4.9 μg/ml at six months (P=not significant (n.s.)).
Patients with higher baseline CRP levels were reduced by 58% from 7.2 μg/ml to 3.0 μg/ml (P<0.001). In placebo-treated patients with higher baseline CRP, CRP levels were decreased by 23% (7.1 μg/ml to 5.5 μg/ml).

[2] = single dose of two 100 mg tablets, adult human; cited from earlier work
[3] = 250 mg every six hours over a twenty-four hour period; cited from earlier work
[4] = all LDD patients (n = 17), listed as Low-Dose Doxycycline
[5] = patients with higher CRP (>5 μg/ml)
[6] = patients with lower baseline CRP (≦5 μg/ml)

serum levels in humans [1]: about 1.0 μg/ml
SMILES: NC(=O)C1=C(O)CC2CC3Cc4cccc(O)c4C(=O)C3=C(O)C2(O)C1=O (stereo not drawn) [CMT-3, 4-dedimethylaminosancycline]

SMILES: C[C@H]1c2cccc(O)c2C(=O)C2=C(O)[C@]3(O)C(=O)C(C(N)=O)=C(O)[C@@H](N(C)C)[C@@H]3[C@@H](O)[C@@H]21 [LDD, doxycycline]
6-Month CRP level (C-reactive protein (CRP); all LDD patients (n = 17)): 2.6 µg/mL
6-Month CRP level (C-reactive protein (CRP); [4]): 2.6 ± 0.4 µg/mL
Reduction Due To Treatment (CRP) (C-reactive protein (CRP); all LDD patients (n = 17)): 46%
Reduction Due To Treatment (CRP) (C-reactive protein (CRP); [4]): 45%
Baseline CRP level (C-reactive protein (CRP); all LDD patients (n = 17)): 4.8 µg/mL
Baseline CRP level (C-reactive protein (CRP); [4]): 4.8 ± 0.6 µg/mL
Reduction Due To Treatment (CRP) (C-reactive protein (CRP); [5]): 58%
Six Month CRP (C-reactive protein (CRP); patients with higher CRP (>5 μg/ml), P<0.001 vs baseline): 3.0 μg/ml and 3.0 ± 0.7^a μg/ml
Baseline CRP (C-reactive protein (CRP); [5]): 7.2 µg/mL and 7.2 ± 0.6 µg/mL
Reduction Due To Treatment (CRP) (C-reactive protein (CRP); [6]): 23%
Six Month CRP (C-reactive protein (CRP); patients with lower baseline CRP (≦5 μg/ml), n.s. vs baseline): 2.3 μg/ml and 2.3 ± 0.5^b μg/ml
Baseline CRP (C-reactive protein (CRP); [6]): 3.0 µg/mL and 3.0 ± 0.4 µg/mL

SMILES: CN(C)c1ccc(O)c2c1C[C@H]1C[C@H]3[C@H](N(C)C)C(O)=C(C(N)=O)C(=O)[C@@]3(O)C(O)=C1C2=O [minocycline HCl]
minocycline serum level, average [2]: 2.24 µg/mL

SMILES: CN(C)[C@@H]1C(O)=C(C(N)=O)C(=O)[C@@]2(O)C(O)=C3C(=O)c4c(O)cccc4[C@@](C)(O)[C@H]3C[C@@H]12 [tetracycline HCl]
peak plasma concentration [3]: approximately 3 μg/ml
